Experimental data published in patent US20160297833A1, “THIENOPYRIMIDINES AS MKNK1 AND MKNK2 INHIBITORS” (BAYER PHARMA AKTIENGESELLSCHAFT, priority 2013, published 2016).
pIC50: −log10 of the molar value. Read-outs that look alike come from different tables or passages of the source.

Target: T1, human full-length MKNK1 (Homo sapiens, UniProt Q9BUB5, T385D)
T1 construct: GST (N); purchased Carna Biosciences 02-145; host or cells: insect cells (baculovirus expression system)
Test: MKNK1 kinase high ATP assay (TR-FRET)
Type: biochemical
Method in brief: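 Full-length human MKNK1 (T385D) preincubated 15 min at 22 °C with compound in HEPES pH 7.5/MgCl2/DTT buffer; reaction with 2 mM ATP (final) and 0.06 μM biotinylated peptide (final), 30 min at 22 °C.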

[1] = Table 1, MKNK1 kinase high ATP assay, 2 mM ATP, read-out: MKNK1 IC50

T1 sequence (Q9BUB5 1-424 isoform Q9BUB5-2 T344D): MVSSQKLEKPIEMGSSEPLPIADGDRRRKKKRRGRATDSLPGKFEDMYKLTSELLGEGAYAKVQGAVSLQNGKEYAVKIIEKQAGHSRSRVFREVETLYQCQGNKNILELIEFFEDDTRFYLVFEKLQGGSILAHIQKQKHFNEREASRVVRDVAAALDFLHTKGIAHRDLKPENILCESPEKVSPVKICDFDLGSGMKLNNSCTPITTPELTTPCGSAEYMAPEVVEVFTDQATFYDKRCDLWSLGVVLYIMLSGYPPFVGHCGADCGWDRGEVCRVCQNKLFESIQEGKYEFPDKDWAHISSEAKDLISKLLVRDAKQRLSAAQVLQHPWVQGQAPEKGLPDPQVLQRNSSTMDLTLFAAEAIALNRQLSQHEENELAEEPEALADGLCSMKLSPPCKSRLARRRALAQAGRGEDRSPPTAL

Structure (SMILES)	pIC50 [1]	also measured
COc1cc2[nH]ncc2cc1Nc1ncnc2sc3c(c12)CC[C@H](C(=O)N1C(=O)O[C@H](c2ccccc2)[C@@H]1C)C3 [Example 64, (4S,5R)-3-({(7S)-4-[(6-Methoxy-1H-indazol-5-yl)amino]-5,6,7,8-tetrahydro[1]benzothieno[2,3-d]pyrimidin-7-yl}carbonyl)-4-methyl-5-phenyl-1,3-oxazolidin-2-one]	7.98	–
CCOc1cc2[nH]ncc2cc1Nc1ncnc2sc3c(c12)CC[C@H](C(=O)N(C)CC(F)F)C3 [Example 65, (7S)—N-(2,2-Difluoroethyl)-4-[(6-ethoxy-1H-indazol-5-yl)amino]-N-methyl-5,6,7,8-tetrahydro[1]benzothieno[2,3-d]pyrimidine-7-carboxamide]	9.22	–
CCOc1cc2[nH]ncc2cc1Nc1ncnc2sc3c(c12)CC[C@H](C(=O)N(C)CCC(F)(F)F)C3 [Example 66, (7S)-4-[(6-Ethoxy-1H-indazol-5-yl)amino]-N-methyl-N-(3,3,3-trifluoropropyl)-5,6,7,8-tetrahydro[1]benzothieno[2,3-d]pyrimidine-7-carboxamide]	9.40	pIC50 (Table 3, example numbers of WO2013/174744(A1), not of this patent, pure enantiomer from chiral HPLC, absolute configuration at amide 'R or S', read-out: MKNK1 IC50): 8.77; pIC50 (Table 3, example numbers of WO2013/174744(A1), not of this patent, pure enantiomer from chiral HPLC, absolute configuration at amide 'S or R', read-out: MKNK1 IC50): 9.05; Activity Ratio MKNK1 (Table 3, example numbers of WO2013/174744(A1), ratio of the IC50 values of the two enantiomers): 1.9
CCOc1cc2[nH]ncc2cc1Nc1ncnc2sc3c(c12)CC[C@H](C(=O)N1CCCC1)C3 [Example 67, {(7S)-4-[(6-Ethoxy-1H-indazol-5-yl)amino]-5,6,7,8-tetrahydro[1]benzothieno[2,3-d]pyrimidin-7-yl}(pyrrolidin-1-yl)methanone]	9.52	–
CCOc1cc2[nH]ncc2cc1Nc1ncnc2sc3c(c12)CC[C@H](C(=O)N1CCC(=O)CC1)C3 [Example 68, 1-({(7S)-4-[(6-Ethoxy-1H-indazol-5-yl)amino]-5,6,7,8-tetrahydro[1]benzothieno[2,3-d]pyrimidin-7-yl}carbonyl)piperidin-4-one]	–	pIC50: 9.52; Activity-Ratio MKNK1 (Table 2, ratio of the IC50-value of an R-enantiomer and its corresponding S-enantiomer): 9.0
CCOc1cc2[nH]ncc2cc1Nc1ncnc2sc3c(c12)CC[C@@H](C(=O)N1CCC(=O)CC1)C3 [Example 69, 1-({(7R)-4-[(6-Ethoxy-1H-indazol-5-yl)amino]-5,6,7,8-tetrahydro[1]benzothieno[2,3-d]pyrimidin-7-yl}carbonyl)piperidin-4-one]	–	pIC50: 8.60
CCOc1cc2[nH]ncc2cc1Nc1ncnc2sc3c(c12)CC[C@H](C(=O)N1C[C@@H]2C[C@H]1CO2)C3 [Example 70, {(7S)-4-[(6-Ethoxy-1H-indazol-5-yl)amino]-5,6,7,8-tetrahydro[1]benzothieno[2,3-d]pyrimidin-7-yl}[(1S,4S)-2-oxa-5-azabicyclo[2.2.1]hept-5-yl]methanone]	9.40	–
CCOc1cc2[nH]ncc2cc1Nc1ncnc2sc3c(c12)CC[C@H](C(=O)N1C[C@H]2C[C@@H]1CO2)C3 [Example 71, {(7S)-4-[(6-Ethoxy-1H-indazol-5-yl)amino]-5,6,7,8-tetrahydro[1]benzothieno[2,3-d]pyrimidin-7-yl}[(1R,4R)-2-oxa-5-azabicyclo[2.2.1]hept-5-yl]methanone]	9.05	–
CCOc1cc2[nH]ncc2cc1Nc1ncnc2sc3c(c12)CC[C@H](C(=O)N1CC2(COC2)C1)C3 [Example 72, {(7S)-4-[(6-Ethoxy-1H-indazol-5-yl)amino]-5,6,7,8-tetrahydro[1]benzothieno[2,3-d]pyrimidin-7-yl}(2-oxa-6-azaspiro[3.3]hept-6-yl)methanone]	9.15	–
CCOc1cc2[nH]ncc2cc1Nc1ncnc2sc3c(c12)CC[C@H](C(=O)N(C)CCO)C3 [Example 73, (7S)-4-[(6-Ethoxy-1H-indazol-5-yl)amino]-N-(2-hydroxyethyl)-N-methyl-5,6,7,8-tetrahydro[1]benzothieno[2,3-d]pyrimidine-7-carboxamide]	9.52	–
CCOc1cc2[nH]ncc2cc1Nc1ncnc2sc3c(c12)CC[C@H](C(=O)N(C)CC(C)(C)O)C3 [Example 74, (7S)-4-[(6-Ethoxy-1H-indazol-5-yl)amino]-N-(2-hydroxy-2-methylpropyl)-N-methyl-5,6,7,8-tetrahydro[1]benzothieno[2,3-d]pyrimidine-7-carboxamide]	9.70	–
